Laboratory results taken from the NIST ThermoML archive (doi:10.1016/j.tca.2014.02.019).

Experiment: xn = mol fraction of the nth substance listed
Conditions: 101 kPa, Liquid; for viscosity: Falling or rolling sphere viscometry; for mass density: Vibrating tube method

CCOS(=O)(=O)[O-].CC[N+]1(C)CCCC1 [1-ethyl-1-methylpyrrolidinium ethyl sulfate] + O
Conditions | mass density [kg/m3] | viscosity [mPa·s]
313.15 K, x1 = 0.0348 | 1046.88 | 1.414
313.15 K, x1 = 0.0933 | 1095.76 | 3.185
313.15 K, x1 = 0.1312 | 1114.51 | 5.031
313.15 K, x1 = 0.2458 | 1144.25 | 10.31
313.15 K, x1 = 0.3495 | 1155.83 | 15.65
313.15 K, x1 = 0.5281 | 1166.58 | 27.98
313.15 K, x1 = 0.693 | 1171.73 | 42.48
313.15 K, x1 = 0.7794 | 1172.62 | 51.33
313.15 K, x1 = 0.895 | 1174.19 | 64.67
313.15 K, x1 = 1 | 1176.31 | 78.32
318.15 K, x1 = 0.0348 | 1044.06 | 1.27
318.15 K, x1 = 0.0933 | 1092.47 | 2.8
318.15 K, x1 = 0.1312 | 1111.07 | 4.391
318.15 K, x1 = 0.2458 | 1140.77 | 8.889
318.15 K, x1 = 0.3495 | 1152.31 | 13.37
318.15 K, x1 = 0.5281 | 1163.34 | 23.71
318.15 K, x1 = 0.693 | 1168.5 | 35.67
318.15 K, x1 = 0.7794 | 1169.22 | 42.9
318.15 K, x1 = 0.895 | 1171.07 | 53.73
318.15 K, x1 = 1 | 1173.63 | 64.72
323.15 K, x1 = 0.0348 | 1041.44 | 1.149
323.15 K, x1 = 0.0933 | 1089.13 | 2.479
323.15 K, x1 = 0.1312 | 1107.59 | 3.87
323.15 K, x1 = 0.2458 | 1137.17 | 7.729
323.15 K, x1 = 0.3495 | 1149.28 | 11.6
323.15 K, x1 = 0.5281 | 1160.06 | 20.29
323.15 K, x1 = 0.693 | 1165.16 | 30.18
323.15 K, x1 = 0.7794 | 1165.65 | 36.07
323.15 K, x1 = 0.895 | 1167.97 | 44.78
323.15 K, x1 = 1 | 1170.95 | 53.51
328.15 K, x1 = 0.0348 | 1038.48 | 1.046
328.15 K, x1 = 0.0933 | 1085.76 | 2.211
328.15 K, x1 = 0.1312 | 1103.99 | 3.392
328.15 K, x1 = 0.2458 | 1133.19 | 6.803
328.15 K, x1 = 0.3495 | 1145.36 | 10.13
328.15 K, x1 = 0.5281 | 1156.72 | 17.54
328.15 K, x1 = 0.693 | 1161.95 | 25.84
328.15 K, x1 = 0.7794 | 1162.9 | 30.7
328.15 K, x1 = 0.895 | 1164.87 | 37.8
328.15 K, x1 = 1 | 1168.27 | 44.82
333.15 K, x1 = 0.0348 | 1035.45 | 0.992
333.15 K, x1 = 0.0933 | 1082.31 | 1.985
333.15 K, x1 = 0.1312 | 1100.26 | 2.943
333.15 K, x1 = 0.2458 | 1129.65 | 6.014
333.15 K, x1 = 0.3495 | 1142.23 | 8.896
333.15 K, x1 = 0.5281 | 1153.16 | 15.32
333.15 K, x1 = 0.693 | 1158.04 | 22.4
333.15 K, x1 = 0.7794 | 1160.04 | 26.46
333.15 K, x1 = 0.895 | 1162.1 | 32.29
333.15 K, x1 = 1 | 1165.59 | 37.95
338.15 K, x1 = 0.0348 | 1033.08 | 0.983
338.15 K, x1 = 0.0933 | 1079.2 | 1.8
338.15 K, x1 = 0.1312 | 1097.07 | 2.454
338.15 K, x1 = 0.2458 | 1125.34 | 5.34
338.15 K, x1 = 0.3495 | 1138.14 | 7.739
338.15 K, x1 = 0.5281 | 1150.02 | 13.29
338.15 K, x1 = 0.693 | 1155.15 | 19.06
338.15 K, x1 = 0.7794 | 1156.48 | 22.65
338.15 K, x1 = 0.895 | 1158.93 | 27.65
338.15 K, x1 = 1 | 1162.91 | 32.87
343.15 K, x1 = 0.0348 | 1030.38 | 0.976
343.15 K, x1 = 0.0933 | 1075.92 | 1.61
343.15 K, x1 = 0.1312 | 1093.61 | 1.923
343.15 K, x1 = 0.2458 | 1122.44 | 4.202
343.15 K, x1 = 0.3495 | 1135.34 | 6.568
343.15 K, x1 = 0.5281 | 1146.94 | 11.31
343.15 K, x1 = 0.693 | 1152.01 | 16.47
343.15 K, x1 = 0.7794 | 1153.23 | 19.55
343.15 K, x1 = 0.895 | 1155.85 | 24.69
343.15 K, x1 = 1 | 1160.23 | 29.23

CCOS(=O)(=O)[O-].CC[N+]1(C)CCOCC1 [4-ethyl-4-methylmorpholinium ethyl sulfate] + O
Conditions | mass density [kg/m3] | viscosity [mPa·s]
298.15 K, x1 = 0.1255 | 1160.26 | 7.655
298.15 K, x1 = 0.2214 | 1196.87 | 20.62
298.15 K, x1 = 0.3165 | 1215.39 | 46.5
298.15 K, x1 = 0.4406 | 1229.15 | 115.6
298.15 K, x1 = 0.6319 | 1240.92 | 529.2
298.15 K, x1 = 0.7239 | 1244.69 | 686.5
298.15 K, x1 = 0.807 | 1247.34 | 2262
298.15 K, x1 = 1 | 1252.26 | –
303.15 K, x1 = 0.1255 | 1157.12 | 6.513
303.15 K, x1 = 0.2214 | 1193.61 | 16.92
303.15 K, x1 = 0.3165 | 1212.17 | 36.79
303.15 K, x1 = 0.4406 | 1226.03 | 93.81
303.15 K, x1 = 0.6319 | 1237.71 | 400.9
303.15 K, x1 = 0.7239 | 1241.43 | 533.1
303.15 K, x1 = 0.807 | 1244.19 | 1630
303.15 K, x1 = 1 | 1249.05 | –
308.15 K, x1 = 0.1255 | 1153.95 | 5.589
308.15 K, x1 = 0.2214 | 1190.35 | 14.11
308.15 K, x1 = 0.3165 | 1208.94 | 29.62
308.15 K, x1 = 0.4406 | 1222.87 | 72.42
308.15 K, x1 = 0.6319 | 1234.48 | 309.1
308.15 K, x1 = 0.7239 | 1238.23 | 408.3
308.15 K, x1 = 0.807 | 1241 | 1088
308.15 K, x1 = 1 | 1245.86 | –
313.15 K, x1 = 0.1255 | 1150.75 | 4.817
313.15 K, x1 = 0.2214 | 1187.08 | 11.93
313.15 K, x1 = 0.3165 | 1205.7 | 24.24
313.15 K, x1 = 0.4406 | 1219.69 | 57.41
313.15 K, x1 = 0.6319 | 1231.24 | 226.8
313.15 K, x1 = 0.7239 | 1235.04 | 308.8
313.15 K, x1 = 0.807 | 1237.81 | 746.9
313.15 K, x1 = 1 | 1242.67 | 2426
318.15 K, x1 = 0.1255 | 1147.52 | 4.176
318.15 K, x1 = 0.2214 | 1183.79 | 10.2
318.15 K, x1 = 0.3165 | 1202.45 | 20.16
318.15 K, x1 = 0.4406 | 1216.5 | 46.03
318.15 K, x1 = 0.6319 | 1228.05 | 170.3
318.15 K, x1 = 0.7239 | 1231.83 | 240
318.15 K, x1 = 0.807 | 1234.63 | 526.7
318.15 K, x1 = 1 | 1239.51 | 1677
323.15 K, x1 = 0.1255 | 1144.26 | 3.673
323.15 K, x1 = 0.2214 | 1180.48 | 8.814
323.15 K, x1 = 0.3165 | 1199.19 | 16.96
323.15 K, x1 = 0.4406 | 1213.31 | 37.3
323.15 K, x1 = 0.6319 | 1224.95 | 130.6
323.15 K, x1 = 0.7239 | 1228.72 | 180.6
323.15 K, x1 = 0.807 | 1231.45 | 379.7
323.15 K, x1 = 1 | 1236.35 | 1129
328.15 K, x1 = 0.1255 | 1140.96 | 2.845
328.15 K, x1 = 0.2214 | 1177.17 | 7.649
328.15 K, x1 = 0.3165 | 1195.92 | 14.47
328.15 K, x1 = 0.4406 | 1210.11 | 30.77
328.15 K, x1 = 0.6319 | 1221.84 | 101.7
328.15 K, x1 = 0.7239 | 1225.53 | 138.4
328.15 K, x1 = 0.807 | 1228.26 | 280.6
328.15 K, x1 = 1 | 1233.2 | 779.3
333.15 K, x1 = 0.1255 | 1137.63 | 2.896
333.15 K, x1 = 0.2214 | 1173.83 | 6.732
333.15 K, x1 = 0.3165 | 1192.63 | 12.44
333.15 K, x1 = 0.4406 | 1206.91 | 25.72
333.15 K, x1 = 0.6319 | 1218.72 | 80.93
333.15 K, x1 = 0.7239 | 1222.36 | 108.1
333.15 K, x1 = 0.807 | 1225.07 | 211.6
333.15 K, x1 = 1 | 1230.06 | 552.3
338.15 K, x1 = 0.1255 | 1134.26 | 2.626
338.15 K, x1 = 0.2214 | 1170.4 | 5.925
338.15 K, x1 = 0.3165 | 1189.38 | 10.79
338.15 K, x1 = 0.4406 | 1203.71 | 21.68
338.15 K, x1 = 0.6319 | 1215.6 | 65
338.15 K, x1 = 0.7239 | 1219.28 | 85.65
338.15 K, x1 = 0.807 | 1221.94 | 162.7
338.15 K, x1 = 1 | 1226.93 | 400.8
343.15 K, x1 = 0.1255 | 1130.86 | 2.124
343.15 K, x1 = 0.2214 | 1167.12 | 5.3
343.15 K, x1 = 0.3165 | 1186.1 | 9.457
343.15 K, x1 = 0.4406 | 1200.5 | 18.46
343.15 K, x1 = 0.6319 | 1212.48 | 53
343.15 K, x1 = 0.7239 | 1216.18 | 68.72
343.15 K, x1 = 0.807 | 1218.8 | 126.8
343.15 K, x1 = 1 | 1223.81 | 297.3
